Test results published in US20100021941A1, “METHODS OF IDENTIFYING MODULATORS OF UBIQUITIN LIGASES” (PROGENRA, INCORPORATED, priority 2008, published 2010).

What was measured:
[1] = test system: E3 ubiquitylation reaction containing E1, E2 (UbcH5c) and E3; assay: E3 ligase inhibition assay using 5′-IAF-UBA1 detection and anti-ubiquitin immunoblot; type: biochemical, human; settings: pre-incubated with various concentrations for 30 minutes at room temperature before adding ubiquitin and ATP; FIGS. 9A-D
Description: E3 ligase reactions contained 10 nM GST-Praja1, 500 nM 6× His-SUMO-CARP2 or 500 nM 6× His-SUMO-MuRF1 as E3s, 50 nM E1, 150 nM UbcH5c (E2), 500 ng Ubiquitin, 2 mM ATP, 50 mM Tris-HCl pH8.0, 5 mM MgCl2, 0.1 mM DTT. For measuring SCF^Atrogin-1 E3 ligase activity, the reaction was assembled essentially as described above except that the E3 ligase contained 6× His-SUMO-Atrogin-1, Cullin-1 (“Cul1”), Roc-1 (“Rbx-1 ”) and 6× His-Skp1 (250 nM each). In order to obtain large amounts of the Cul1-Rbx1 complex for the SCF complex, we used a procedure to overexpress the Cul1-Rbx1 complex in E. coli. Zheng, et al., Nature, 416(6882):703-9 (2002). The Cull gene was split into two halves (residues 1-410 and residues 411-776) and co-expressed with GST-tagged Rbx1 as three different polypeptide chains. A PCR product encoding Skp1 was generated using the primers 5′-[…]-3′ (SEQ ID NO:28) and 5′-[…]-3′ (SEQ ID NO:29) and human Skp1 cDNA as the template. […]
For inhibition assays, reactions containing E1, E2, and E3 were pre-incubated with various concentrations of NEM and ubistatin A for 30 minutes at room temperature before initiating the reaction by adding ubiquitin and ATP. […] The wells were washed with 1× PBS and readings were taken using a fluorescence plate reader with excitation and emission wavelengths of 485 nm and 535nm, respectively. […]

[2] = biological target: T1, E1, E2 and E3 coupled enzyme reaction (GST-E1/His6-UbcH5c/6× His-SUMO-CARP2 ligase) (Homo sapiens, UniProt P22314+P61077+Q8WZ73); assay: E3 ligase assay (autoubiquitylation) on 6× His-SUMO-UBA2 coated plates, anti-ubiquitin antibody/FITC fluorescence detection; type: biochemical; settings: enzymes pre-incubated with compound 30 minutes at room temperature; reaction 60 minutes at 37° C.; 500 nM 6× His SUMO-CARP2; triplicate; FIG. 6A
T1 construct: fused on or other part: GST on E1; His6 on UbcH5c; 6x His-SUMO on CARP2; The plate is coated with 6x His-SUMO-UBA2 (yeast Rad23 residues 351-398) as capture reagent
Description: Medium binding plates (Costar, USA) were coated with 100 μl of 0.1 mg/ml solution of 6× His-SUMO-UBA2 overnight at 4° C. The plates were blocked with 200 μl of 3% BSA in 1× phosphate buffered saline (1× PBS, pH 7.4) for 3 hours at 4° C. and washed with 1× PBS three times. E3 reactions were carried out as follows. For IC50 experiments, various concentrations of NEM, iodoacetamide, and ubistatin A were added to individual wells in triplicate. Controls contained 5 μl of 10% DMSO or 50 mM NEM. The compounds were supplemented with 20 μl of enzyme mixture containing GST-E1 (10 nM)/His6-UbcH5c (100 nM), 6× His SUMO-CARP2 (500 nM) prepared in assay buffer (50 mM Tris-HCl, pH8.0, 2 mM MgCl2, 0.1 mM DTT) and incubated at room temperature for 30 minutes. A pFastBac-GST-E1 vector was expressed and purified from insect cells according to published methods. Beaudenon and Huibregtse, Methods Enzymol, 398: 3-8 9 (2005). A PCR product encoding UbcH5c was generated using the primers 5′-[…]-3′ (SEQ ID NO:24) and 5′-[…]-3′ (SEQ ID NO:25) and human UbcH5c cDNA as the template. The PCR fragment was digested with BsaI and BamHI, and then ligated into pET24D (Novagen) generating 6× His-UbcH5c. […] Plates were washed six times with 1× PBS and readings were taken using the fluorescence plate reader with excitation and emission wavelengths of 485 nm and 535 nm, respectively.

T1 sequence (P22314 2-1058): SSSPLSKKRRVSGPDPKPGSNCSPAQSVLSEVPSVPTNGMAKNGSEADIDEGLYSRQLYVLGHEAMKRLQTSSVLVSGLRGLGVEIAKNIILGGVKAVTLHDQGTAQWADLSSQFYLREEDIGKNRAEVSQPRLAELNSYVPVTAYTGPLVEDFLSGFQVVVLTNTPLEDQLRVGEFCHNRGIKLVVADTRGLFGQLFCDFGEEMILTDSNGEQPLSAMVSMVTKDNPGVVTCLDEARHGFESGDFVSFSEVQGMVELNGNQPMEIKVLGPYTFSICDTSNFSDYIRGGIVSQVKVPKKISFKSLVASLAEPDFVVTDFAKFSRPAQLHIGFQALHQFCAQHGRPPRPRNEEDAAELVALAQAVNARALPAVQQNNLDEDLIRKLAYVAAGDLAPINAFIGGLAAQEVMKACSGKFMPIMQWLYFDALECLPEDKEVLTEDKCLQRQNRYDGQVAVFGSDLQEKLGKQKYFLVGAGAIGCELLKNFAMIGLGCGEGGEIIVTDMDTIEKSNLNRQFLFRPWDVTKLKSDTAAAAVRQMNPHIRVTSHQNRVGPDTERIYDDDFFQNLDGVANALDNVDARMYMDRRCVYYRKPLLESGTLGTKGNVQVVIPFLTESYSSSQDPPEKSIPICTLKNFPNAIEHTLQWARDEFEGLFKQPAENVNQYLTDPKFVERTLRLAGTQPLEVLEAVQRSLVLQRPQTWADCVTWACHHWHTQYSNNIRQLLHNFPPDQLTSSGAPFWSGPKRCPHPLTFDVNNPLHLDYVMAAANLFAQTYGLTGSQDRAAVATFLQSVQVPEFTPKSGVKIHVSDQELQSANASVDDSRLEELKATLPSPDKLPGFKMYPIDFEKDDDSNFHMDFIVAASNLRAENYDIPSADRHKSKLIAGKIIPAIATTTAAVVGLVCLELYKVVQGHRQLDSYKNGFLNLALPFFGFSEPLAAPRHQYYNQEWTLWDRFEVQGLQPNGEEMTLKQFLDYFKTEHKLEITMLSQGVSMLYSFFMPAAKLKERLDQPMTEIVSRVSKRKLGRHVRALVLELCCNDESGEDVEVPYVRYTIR
T1 sequence (P61077 whole entry, the tested form may be a part): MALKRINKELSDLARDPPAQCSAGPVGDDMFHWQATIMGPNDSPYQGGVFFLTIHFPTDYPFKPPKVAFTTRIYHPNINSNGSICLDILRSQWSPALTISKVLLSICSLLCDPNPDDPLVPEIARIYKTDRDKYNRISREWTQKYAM
T1 sequence (Q8WZ73 whole entry, the tested form may be a part): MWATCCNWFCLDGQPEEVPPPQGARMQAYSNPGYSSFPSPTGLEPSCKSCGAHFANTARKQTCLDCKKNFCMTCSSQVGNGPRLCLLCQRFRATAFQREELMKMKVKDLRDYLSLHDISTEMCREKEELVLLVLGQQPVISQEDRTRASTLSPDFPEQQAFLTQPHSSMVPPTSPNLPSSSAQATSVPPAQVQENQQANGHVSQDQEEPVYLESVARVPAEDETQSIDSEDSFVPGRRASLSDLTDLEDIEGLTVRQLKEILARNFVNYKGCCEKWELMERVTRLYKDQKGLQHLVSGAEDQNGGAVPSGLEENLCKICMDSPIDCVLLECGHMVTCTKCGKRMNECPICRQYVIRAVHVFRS

Structure (SMILES) | inhibition of the E3 ubiquitylation assay [1] | IC50 [2]
O=C(Nc1ccc(/C=C/c2ccc(NC(=O)c3cc(S(=O)(=O)O)c4cccnc4c3O)cc2S(=O)(=O)O)c(S(=O)(=O)O)c1)c1cc(S(=O)(=O)O)c2cccnc2c1O [ubistatinA] | inhibited | 0.421 µM
CCN1C(=O)C=CC1=O [NEM] | inhibited | 34.2 µM
